Experimental data as given in publication PMC11380953, “Multivalent, calcium-independent binding of surfactant protein A and D to sulfated glycosaminoglycans of the alveolar epithelial glycocalyx” (American Journal of Physiology - Lung Cellular and …, 2024).

Biological target: T1, hSP-A (Homo sapiens, UniProt Q8IWL1+Q8IWL2)
T1 construct: Human PAP patient, BAL isolated; from tissue; host or cells: bronchoalveolar lavage fluid of a patient with pulmonary alveolar proteinosis
Test: Collectin-based binding assay (immobilized hSP-A, WGA-AlexaFluor488 detection)
Details: for normalized fluorescence of WGA bound to GAG on immobilized hSP-A: absence of calcium (Fig. 4B, C); for binding of immobilized hSP-A to GAG (normalized fluorescence): presence of 5 mM calcium (Fig. 4B, C)
Method: hSP-A was immobilized in a black 96-well plate (655076, Greiner BIO-One, Frickenhausen, Germany) by coating the plate with a specific anti-SP-A antibody (Abcam, abab190087, Cambridge, UK) at a concentration of 0.5 µg/mL in coating buffer [0.1 M NaHCO3 buffer (pH 9.6)] at 4°C overnight. Afterward, the plate was blocked with 100 µL Synblock (Bio-Rad, BUF034B, California) for 2 h at room temperature. Then, hSP-A was added at 14 ng/well and incubated with the antibody for 1 h at room temperature in washing buffer (5 mM Tris, 0.9% NaCl, and 0.05% Tween-20) to immobilize it. After washing with washing buffer, different concentrations of HA or HS ranging from 10 mM to 1 nM were added in either washing buffer without calcium or with 5 mM CaCl2 and incubated with the immobilized protein for 1 h at room temperature. The following washing steps were performed with washing buffer containing no calcium or 5 mM CaCl2. To detect the GAGs bound to the protein, an AlexaFluor488-conjugated wheat germ agglutinin (WGA, W11261, Invitrogen, Massachusetts) was added at 50 µg/mL in washing buffer containing no calcium or 5 mM CaCl2 and incubated it for 30 min at room temperature protected from light. After washing with washing buffer with or without calcium, 100 µL of washing buffer without calcium was added to read the fluorescence of the bound WGA with an excitation filter at 485 nm and an emission filter at 520 nm in a plate reader (FLUOstar Omega, BMG Labtech, Ortenberg, Germany).
The data of the binding inhibition assay were analyzed in GraphPad Prism 9.5.1 using the “normalize” function and fitting to the nonlinear regression dose-response inhibition. The best fitting was achieved using the “[Inhibitor] versus response–variable slope (four parameters)” model. The fluorescence values from the collectin-based binding assay were normalized using the same “normalize” function in GraphPad, and the statistical test used was the “non-parametric Kruskal-Wallis” test. The statistical test used for the DMMB assay for GAG quantification was also the “non-parametric Kruskal-Wallis” test.

T1 sequence (Q8IWL2 21-248): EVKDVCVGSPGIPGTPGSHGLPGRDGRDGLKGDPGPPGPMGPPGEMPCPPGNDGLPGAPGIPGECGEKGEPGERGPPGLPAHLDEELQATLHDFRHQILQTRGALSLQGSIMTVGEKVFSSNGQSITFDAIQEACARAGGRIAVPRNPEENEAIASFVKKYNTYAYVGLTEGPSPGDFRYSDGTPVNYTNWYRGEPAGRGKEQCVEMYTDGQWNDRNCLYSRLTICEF
T1 sequence (Q8IWL1 21-248): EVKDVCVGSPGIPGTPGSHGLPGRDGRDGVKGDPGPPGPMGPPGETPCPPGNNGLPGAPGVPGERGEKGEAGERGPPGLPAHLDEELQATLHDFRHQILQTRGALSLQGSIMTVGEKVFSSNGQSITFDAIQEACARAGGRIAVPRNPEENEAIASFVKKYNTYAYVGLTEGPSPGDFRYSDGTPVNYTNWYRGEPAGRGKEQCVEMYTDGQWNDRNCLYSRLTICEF

hyaluronic acid sodium salt [HA]
normalized fluorescence of WGA bound to GAG on immobilized hSP-A: no significant increase in fluorescence | binding of immobilized hSP-A to GAG (normalized fluorescence): able to bind

heparan sulfate sodium [HS]
normalized fluorescence of WGA bound to GAG on immobilized hSP-A: increased fluorescence | binding of immobilized hSP-A to GAG (normalized fluorescence): able to bind
